Source: patent US12059403B2, “Use of SWELL1 inhibitors and modulators to treat type 2 diabetes and obesity” (UNIVERSITY OF IOWA RESEARCH FOUNDATION, priority 2016, dated 2024)
Numbering of substitutions follows the chain as printed.

Experiments:
[1] = molecular target: T1, volume-regulated anion current (VRAC) (Mus musculus, UniProt Q80WG5); assay: Patch-clamp of swell-activated current in mature murine iWAT adipocytes swelled by positive pressure; assay type: cell-based; conditions: positive pressure swelling, whole-cell
T1 construct: present in the murine 3T3-F442A and human adipocyte cell lines (NPAD) upon hypotonic swelling; endogenous in cells; host or cells: 3T3-F442A adipocytes
T1 sequence (Q80WG5 1-810): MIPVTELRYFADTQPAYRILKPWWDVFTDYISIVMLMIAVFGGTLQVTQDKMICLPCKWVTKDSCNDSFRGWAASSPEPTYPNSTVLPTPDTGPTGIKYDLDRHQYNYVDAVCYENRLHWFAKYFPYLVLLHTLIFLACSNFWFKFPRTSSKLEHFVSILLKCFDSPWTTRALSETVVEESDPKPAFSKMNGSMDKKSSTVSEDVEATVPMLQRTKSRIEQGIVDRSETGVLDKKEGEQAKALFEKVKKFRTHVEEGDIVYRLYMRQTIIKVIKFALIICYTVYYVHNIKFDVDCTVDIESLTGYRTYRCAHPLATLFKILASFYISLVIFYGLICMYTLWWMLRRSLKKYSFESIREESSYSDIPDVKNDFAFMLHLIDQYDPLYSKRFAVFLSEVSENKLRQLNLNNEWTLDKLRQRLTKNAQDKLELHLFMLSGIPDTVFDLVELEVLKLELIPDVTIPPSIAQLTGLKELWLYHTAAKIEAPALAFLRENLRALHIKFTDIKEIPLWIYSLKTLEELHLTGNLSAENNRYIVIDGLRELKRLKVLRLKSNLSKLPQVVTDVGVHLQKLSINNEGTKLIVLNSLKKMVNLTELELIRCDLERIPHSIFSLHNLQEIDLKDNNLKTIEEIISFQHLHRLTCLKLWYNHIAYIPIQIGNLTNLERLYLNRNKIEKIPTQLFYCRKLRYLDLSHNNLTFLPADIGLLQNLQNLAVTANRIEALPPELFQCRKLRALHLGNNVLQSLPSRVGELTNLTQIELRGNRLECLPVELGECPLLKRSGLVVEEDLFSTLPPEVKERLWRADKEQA
Protocol: To identify a putative swell-activated ionic current in adipocytes, patch-clamp recordings were performed on mature murine adipocytes freshly isolated from inguinal white adipose tissue (iWAT). Ionic currents were measured in voltage-clamp mode while simultaneously swelling the adipocyte by applying positive pressure (˜3-5 mmHg, whole-cell configuration) via the patch-pipette. After a few minutes, activation of a large swell-activated current was observed. This current is outward rectifying, characterized by larger outward current at positive voltages compared to inward currents at negative voltages during sequential voltage ramps or voltage steps, with the current amplitude proportional to the extent of adipocyte swelling. This current reverses direction at −11.7±2.5 mV, which is near the reversal potential of chloride under these conditions (−11.5 mV, junction potential corrected). […] Finally, this swell-activated adipocyte current is blocked by 4-[(2-Butyl-6,7-dichloro-2-cyclopentyl-2,3-dihydro-1-oxo-1H-inden-5-yl)oxy]butanoic acid (DCPIB), a selective blocker of the volume-regulated anion current (VRAC) or volume-sensitive outwardly rectifying chloride current (VSOR).

β-cell VRAC [2] = molecular target: T2, β-cell VRAC (Homo sapiens, UniProt Q8IWT6); assay: Perforated-patch clamp of glucose-activated VRAC in primary human β-cells; assay type: cell-based; conditions: 35-37° C.
T2 construct: from tissue; host or cells: primary β-cells from human pancreatic islets
T2 sequence (Q8IWT6 1-810): T1 sequence (Q80WG5 1-810) with S75P, S76G, V86I, A276I, V591A, V715I, A722T, S792N
Protocol: (§1) Having established that SWELL1 is required for this previously enigmatic depolarizing swell-activated Cl^− current in MIN6 cells, and in both mouse and human primary β-cells, whether physiologic glucose-mediated β-cell swelling is sufficient to activate SWELL1-mediated VRAC was investigated. First, β-cell size was measured by light microscopy in WT and SWELL1-deficient primary murine and human β-cells in response to glucose-stimulated swelling (at 35-37° C.). WT murine β-cells swell 6.8±1.6% in cross-sectional area upon perfusion of 16.7 mM glucose (from 1 mM basal glucose) and reach a maximum size at 12 minutes post glucose-stimulation, followed by a reduction in β-cell size, consistent with regulatory volume decrease (RVD). […] WT human β-cells show a similar trend, swelling 8.6±3.5%, followed by RVD. […] Next, the perforated-patch clamp technique was applied to primary β-cells at 35-37° C. in order to measure currents under the same physiological conditions that induce glucose-mediated β-cell swelling. β-cell VRAC activates in response to physiological increases in glucose in MIN6 cells and in both mouse and human β-cells, and is blocked by the selective VRAC inhibitor, DCPIB. […]

[3] = test system: mice raised on a high-fat diet; assay: Glucose tolerance in mice raised on a high-fat diet; assay type: in vivo
[4] = molecular target: T1, volume-regulated anion current (VRAC); assay: Patch-clamp of swell-activated current in 3T3-F442A adipocytes upon hypotonic swelling; assay type: cell-based; conditions: murine 3T3-F442A adipocytes
β-cell VRAC [5] = molecular target: T3, β-cell VRAC (Mus musculus, UniProt Q80WG5); assay: Perforated-patch clamp of glucose-activated VRAC in primary mouse β-cells; assay type: cell-based; conditions: 35-37° C.
T3 construct: endogenous in cells; host or cells: MIN6 mouse insulinoma cells
T3 sequence (Q80WG5 1-810): T1 sequence (Q80WG5 1-810)
Protocol: as §1

β-cell VRAC [6] = molecular target: T3, β-cell VRAC; assay: Perforated-patch clamp of glucose-activated VRAC in MIN6 cells; assay type: cell-based; conditions: 35-37° C.
Protocol: as §1

SWELL1 = SWELL1 protein expression in cultured adipocytes; assay type: cell-based
[7] = molecular target: T4, volume-regulated anion current (VRAC) (Homo sapiens, UniProt Q8IWT6); assay: Patch-clamp of swell-activated current in human adipocyte cell line (NPAD) upon hypotonic swelling; assay type: cell-based
T4 construct: present in the murine 3T3-F442A and human adipocyte cell lines (NPAD) upon hypotonic swelling; endogenous in cells; host or cells: human adipocyte cell line (NPAD)
T4 sequence (Q8IWT6 1-810): T1 sequence (Q80WG5 1-810) with S75P, S76G, V86I, A276I, V591A, V715I, A722T, S792N

WT MIN6 cells = assay: Glucose-stimulated intracellular Ca2+ in WT MIN6 cells; assay type: cell-based, mouse; conditions: 10 μM
Protocol: To determine whether SWELL1-mediated depolarizing Cl^− current is required to depolarize the β-cell membrane potential to the activation threshold of voltage-gated Ca^2+ channels (VGCC) essential for insulin granule fusion, glucose-stimulated intracellular Ca^2+ was measured in WT and SWELL1-deficient MIN6 β-cells, primary mouse and human β-cells.

[8] = test system: WT primary murine β-cells; assay: Glucose-stimulated Ca2+ signaling (GCaMP6s imaging) in WT primary murine β-cells; assay type: cell-based; conditions: 10 μM
Description: SWELL1-dependent Ca^2+ signaling was then examined in primary mouse and human β-cells. Adenoviruses expressing the genetically encoded Ca^2+-sensor GCaMP6s under control of the rat insulin promoter 1 (RIP1), either alone (Ad-RIP1-GCaMP6s), or in combination with Cre-recombinase (Ad-RIP1-Cre-P2A-GCaMP6s), were generated. This approach provides a robust β-cell restricted fluorescent Ca^2+ sensor while simultaneously allowing for β-cell targeted Cre-mediated SWELL1 deletion in cultured SWELL1^fl/fl islets isolated from SWELL1^fl/fl mice. […] A similar approach was used in human islets, whereby islets were co-transduced with Ad-RIP1-GCaMP6s and either Ad-U6-shSWELL1-mCherry or Ad-U6-shSCR-mCherry. Upon islet dissociation, only double-labelled GCaMP6s+/mCherry+ primary human β-cells were imaged. As with mouse primary β-cells, robust glucose-stimulated Ca^2+ transients in Ad-shSCR treated human primary β-cells were observe, and this is markedly abograted upon Ad-shSWELL1-mediated SWELL1 knock-down. […] In pancreatic β-cells, physiological intracellular Cl^− concentration is maintained at 34-36 mM by NKCC1 transporters to generate a depolarizing Cl^− current upon activation of a Cl^− conductance, since ECl−=˜−35 mV. […]

SMILES	swell-activated adipocyte current [1]	β-cell VRAC activated by physiological increases in glucose (β-cell VRAC [2])	glucose tolerance associated with obesity [3]	swell-activated current [4]	β-cell VRAC activated by physiological increases in glucose (β-cell VRAC [5])	β-cell VRAC activated by physiological increases in glucose (β-cell VRAC [6])	SWELL1 protein expression (SWELL1)	swell-activated current [7]	glucose-stimulated Ca2+ signaling (WT MIN6 cells)	glucose-stimulated Ca2+ signaling [8]
CCCCC1(C2CCCC2)Cc2cc(OCCCC(=O)O)c(Cl)c(Cl)c2C1=O (stereo not shown) [DCPIB, 4-[(2-Butyl-6,7-dichloro-2-cyclopentyl-2,3-dihydro-1-oxo-1H-inden-5-yl)oxy]butanoic acid]	blocked	blocked	normalized	fully inhibited	blocked	blocked	induced a compensatory increase	fully inhibited	–	–
CCCCNc1cc(C(=O)O)cc(S(N)(=O)=O)c1Oc1ccccc1 [bumetanide]	–	–	–	–	–	–	–	–	fully inhibits	fully inhibits
